Key:
[1] = biological target: T1, thrombin (Homo sapiens, UniProt P00734); settings: literature values; cited from earlier work
[2] = in plasma in healthy human volunteers; intravenously; cited from earlier work
[3] = biological target: T1, thrombin; assay: Thrombin inhibition test of recombinant protein fragments generated by factor Xa; type: biochemical; parameters: Brown and cyan colors represent heavy and light chain of thrombin respectively; settings: fragment 100 pM, thrombin 0.1 nM, S-2238 15 μM
Method: Recombinant protein (10 μM) was incubated with or without factor Xa 1 μM in phosphate buffer 50 mM containing NaCl 150 mM, and phosphatidylserine and phosphatidylcholine 50 μM, pH 7.4 for 18 h at 37° C. (A) Reaction mixtures were split through reverse phase HPLC column C-18. (B) Gathered peaks (H1-H5) were subjected to MALDI-TOF MS and thrombin inhibition test (see table 1, for correspondent peptide sequence). (C) Typical progress curves for hydrolysis of chromogenic substrate S-2238 15 μM by thrombin 0.1 nM in absence (trace Ctrl) and presence of recombinant protein fragment 100 pM (traces H1 and H3) or preserved recombinant protein (trace Scpt) in phosphate buffer 50 mM containing NaCl 150 mM and 0.1% of PEG 6000, pH 7.4 at 37° C. (D) Percentage of thrombin inhibition by recombinant protein and fragments thereof. Reaction conditions of percentage of thrombin inhibition were obtained from (C).
In addition, recombinant protein was incubated with factor Xa for 18 h and resulting peptides were split by reverse phase chromatography (FIG. 6A). Peaks (named as H1, H2, H3 H4 and H5) were gathered and undergone to mass spectrometry MALDI-TOF (FIG. 6B). In accordance with analysis of mass spectrometry, H1 corresponds to average mass of 5153.57 Da, H2 corresponds to average mass of 3667.50 Da and 4582.40 Da and H3 corresponds to average mass of 8220.55 Da and 6770.60 Da. Similarly, H4 corresponds to average mass of 7299.61 Da and 12427.54 Da and H5 corresponds to 16990.90, 12427.54 Da and 11843.17 Da (FIG. 6B, Table 1). Further, fractions (H1, H2, H3 and H4) were undergone to test of thrombin inhibition (FIG. 6C). Fractions H1, H2, H3 and H4 retained thrombin inhibition activity of about 50%, 45%, 70% and 80% respectively, of preserved no hydrolyzed recombinant protein (FIG. 6D). Peak H5 had mainly preserved recombinant protein, thus it was not considered for test of thrombin inhibition.

Molecule	Inhibition Type [1]	Half-life [2]	Ki [1]	thrombin inhibition activity retained, of preserved no hydrolyzed recombinant protein [3]
CC1CNc2c(cccc2S(=O)(=O)N[C@@H](CCCNC(=N)N)C(=O)N2CC[C@@H](C)C[C@@H]2C(=O)O)C1 (stereo partly drawn) [Argatroban]	No competing	50 min	–	–
Bivalirudin	No competing	25 min	1.9 ± 2.6 nM	–
GKPQGHPHDALEARSDAVHTAVPKMPKGGHGGFEPIPIDYDERALEAR (Sculptin fragments generated by Xa factor) [H1, HPLC peak of recombinant protein hydrolyzed by factor Xa, average mass 5153.57 Da]	–	–	–	about 50%
H2: HPLC peak of factor Xa hydrolysate, masses 3667.50 and 4582.40 Da (SEQ ID NO: 11 and 12) (protein, Sculptin fragments generated by Xa factor) chain 1: SDAVHTAVPKMPKGGHGGFEPIPIDYDERALEAR chain 2: SDAVHTAVPKMPKGGHGGFEPIPIDYDERALHALEHHHHHH	–	–	–	~45%
H3: HPLC peak of factor Xa hydrolysate, masses 8220.55 and 6770.60 Da (SEQ ID NO: 13 and 14) (protein, Sculptin fragments generated by Xa factor) chain 1: SDAVHTAVPKMPKGGHGGFEPIPIDYDERALEARSDAVHTAVPKMPKGGHGGFEPIPIDYDERALHALEHHHHHH chain 2: SDAVHTAVPKMPKGGHGGFEPIPIDYDERALEARSDAVHTAVPKMPKGGHGGFEPIPIDYDER	–	–	–	~70%
H4: HPLC peak of factor Xa hydrolysate, masses 7299.61 and 12427.54 Da (SEQ ID NO: 15 and 16) (protein, Sculptin fragments generated by Xa factor) chain 1: SDAVHTAVPKMPKGGHGGFEPIPIDYDERALEARSDAVHTAVPKMPKGGHGGFEPIPIDYDERALEAR chain 2: GKPQGHPHDALEARSDAVHTAVPKMPKGGHGGFEPIPIDYDERALEARSDAVHTAVPKMPKGGLGGFEPIPIDYDERALEARSDAVHTAVPKMPKGGHGGFEPIPIDYDERALEAR	–	–	–	~80%
